Measured values reported in PubChem BioAssay (NCI).
Values joined by “and” are separate entries in the source; they are usually repeats but may differ in a detail not shown here. Equal values may be shown once.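 These data come from cells grown in 96-well plates and exposed to compound for 48 hours at five concentrations. At the GI50, growth is halved. The concentration for full growth arrest is given as TGI.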

Assays:
Assay in all cases: NCI tumour cell line growth inhibition, 48 h
ACHN renal = system: ACHN renal
HS 578T breast = system: HS 578T breast
M14 melanoma = system: M14 melanoma
MDA-MB-231 breast = system: MDA-MB-231 breast
NCI-H226 lung = system: NCI-H226 lung
OVCAR-4 ovarian = system: OVCAR-4 ovarian
PC-3 prostate = system: PC-3 prostate
SF-539 CNS = system: SF-539 CNS
SK-MEL-28 melanoma = system: SK-MEL-28 melanoma
SK-MEL-5 melanoma = system: SK-MEL-5 melanoma

Structure (SMILES)	GI50 (ACHN renal)	TGI (ACHN renal) [µM]	GI50 (HS 578T breast)	TGI (HS 578T breast)	GI50 (M14 melanoma)	TGI (M14 melanoma) [µM]	GI50 (MDA-MB-231 breast)	TGI (MDA-MB-231 breast) [µM]	GI50 (NCI-H226 lung)	TGI (NCI-H226 lung)	GI50 (OVCAR-4 ovarian)	TGI (OVCAR-4 ovarian)	GI50 (PC-3 prostate)	TGI (PC-3 prostate) [µM]	GI50 (SF-539 CNS)	TGI (SF-539 CNS)	GI50 (SK-MEL-28 melanoma)	TGI (SK-MEL-28 melanoma) [µM]	GI50 (SK-MEL-5 melanoma)	TGI (SK-MEL-5 melanoma) [µM]
COc1cc2c(Nc3cc(Cl)c(OC)c(Cl)c3)c(C#N)cnc2cc1OCCCN1CCN(C)CC1	0.239 µM	3.58	2.82 µM	11.5 µM	1.1 µM	2.57	2.6 µM	5.2	3.39 µM	18.2 µM	1.9 µM	11.3 µM	7.06 µM	20.6	1.01 µM	2.91 µM	1.97 µM	4.53	1.37 µM	2.71
COC(c1ccc(C(C)(C)C)cc1)(c1ccc(C(C)(C)C)cc1)c1ccc(C(C)(C)C)cc1		> 100		> 100 µM		> 100		> 100		> 100 µM		> 100 µM		> 100		> 100 µM		> 100		> 100
C=CC(=O)N1CN(C(=O)C=C)CN(C(=O)C=C)C1	1.89 µM	4.49	> 100 µM	> 100 µM	2.85 µM	7.86	11.5 µM	35.6	5.87 µM	> 100 µM	5.06 µM	21.2 µM	9.16 µM	53.9	2.98 µM	48.3 µM	4.02 µM	16.2	9.61 µM	24.7
NCCNCC1CCNCC1		> 100		> 100 µM		> 100		> 100		> 100 µM		> 100 µM		> 100		> 100 µM		> 100		> 100
O=C(/C(=C\c1c(-c2ccccc2)[nH]c2ccccc12)S(=O)(=O)c1ccccc1)c1ccccc1	6.67 µM	> 100	39.5 µM	> 100 µM	15.6 µM	> 100	> 100 µM	> 100	> 100 µM	> 100 µM	6.58 µM	> 100 µM	4.96 µM	> 100	> 100 µM	> 100 µM	> 100 µM	> 100	9.01 µM	> 100
COc1ccc(-c2ccc3c(N4CCOC[C@@H]4C)nc(N4CCOC[C@@H]4C)nc3n2)cc1CO	0.00495 µM and 0.0209 µM	> 100	0.0018 µM and 0.0131 µM	0.0145 µM and 0.0679 µM	0.00517 µM and 0.0262 µM	20.5	0.00595 µM and 0.0364 µM	13.8	0.004 µM and 0.0139 µM	0.186 µM and 0.312 µM	0.00414 µM and < 0.0142 µM	0.0382 µM and 0.12 µM	0.00478 µM and < 0.0109 µM	> 100	0.00431 µM and 0.026 µM	0.0831 µM and 0.268 µM	0.00476 µM and 0.0135 µM	0.181	0.00471 µM and 0.0264 µM	
CC(C)(C)[Si](C)(C)OC1[C@@H](CNC(=O)NC(=O)CCl)O[C@@H](n2cnc3c(N)ncnc32)[C@H]1O[Si](C)(C)C(C)(C)C (some centres undefined)	0.462 µM	1.11	1.14 µM	3.17 µM	1.07 µM	2.49	0.905 µM	1.71	0.956 µM	2 µM	0.924 µM	2.51 µM	0.942 µM	2.05	0.944 µM	1.67 µM	1.4 µM	4.12	0.862 µM	1.6
COc1ccc(-c2nn(-c3cccc(Cl)c3)cc2-c2cc(-c3ccccc3)[nH]c(=O)c2C#N)cc1	1.83 µM	10.7	1.41 µM	> 50 µM	2.27 µM	34.6	1.24 µM	10.4	0.969 µM	> 50 µM	1.25 µM	5.34 µM	6.01 µM	41.6	1.01 µM	2.75 µM	2.93 µM	> 50	5.76 µM	> 50
